According to US6127372A, “Sulfonamide inhibitors of aspartyl protease” (Vertex Pharmaceuticals, Incorporated, priority 1996, dated 2000):
pKi: −log10 of the molar value. Like-named read-outs stand apart in the source and are kept apart here.

Target: HIV-1 protease (Human immunodeficiency virus type 1 group M subtype B, UniProt P04585)
Assay: Inhibition constants against HIV-1 protease, method of Pennington et al.
Type: biochemical
[1] = HIV-1 protease, method of Pennington et al., read-out: Ki

SMILES	pKi [1]	further results
COc1ccc(S(=O)(=O)N(CC[C@H](O)CN(CC(C)C)S(=O)(=O)c2ccc(OC)cc2)CC2CCCC2)cc1 [LVa]	6.78	–
Nc1cccc(S(=O)(=O)N(CC2CCCC2)C[C@@H](O)CN(CCc2ccccc2)C(=O)c2cccnc2)c1 [Compound 1044]	6.66	–
COc1ccc(S(=O)(=O)N(CC[C@H](O)CN(CC(C)C)S(=O)(=O)c2ccc(OC)cc2)CC(C)C)cc1 [XLIVa]	6.40	–
COc1ccc(S(=O)(=O)N(CC2CCCC2)C[C@@H](O)CN(CCc2ccccc2)CC(=O)c2ccccc2)cc1 [Compound 1028]	6.10	–
COc1ccc(S(=O)(=O)N(CCc2ccccc2)CC[C@H](O)CN(CC(C)C)S(=O)(=O)c2ccc(OC)cc2)cc1 [Compound 1035]	5.44	–
COc1ccc(S(=O)(=O)N(CC2CCCC2)C[C@@H](O)CN(CCc2ccccc2)C(=O)c2ccccc2)cc1 [Compound 1026]	7.70	–
COc1ccc(S(=O)(=O)N(CC(C)C)C[C@H](O)CCN(CCc2ccccc2)C(=O)O[C@H]2CCOC2)cc1 [Compound 1038]	< 5.00	–
COc1ccc(S(=O)(=O)N(CC(C)C)C[C@@H](O)CCN(CC2CCCC2)C(=O)O[C@H]2CCOC2)cc1 [Compound 1039]	< 5.52	–
COc1ccc(S(=O)(=O)N(CC(O)CN2CC(c3ccccc3)c3ccccc3C2=O)CC2CCCC2)cc1 (stereo not drawn) [Compound 1048]	5.48	–
COc1ccc(S(=O)(=O)N(CC2CCCC2)C[C@@H](O)CN(CCc2ccccc2)C(=O)Oc2ccccc2)cc1 [Compound 1022]	–	pKi: 6.77
COc1ccc(S(=O)(=O)N(CC(C)C)C[C@@H](O)CCN(CCc2ccccc2)C(=O)O[C@H]2CCOC2)cc1 [Compound 1037]	< 5.00	–
Nc1cccc(S(=O)(=O)N(CC2CCCC2)C[C@@H](O)CN(CCc2ccccc2)C(=O)c2ccncc2)c1 [Compound 1045]	7.85	–
COc1ccc(S(=O)(=O)N(CC2CCCC2)C[C@@H](O)CN(CCc2ccccc2)C(=O)O[C@H]2CCOC2)cc1 [Compound 1001]	–	pKi (read-out: Ki): 7.52
COc1ccc(S(=O)(=O)N(CC(C)C)C[C@@H](O)CCN(CCc2ccccc2)C(=O)OC2COC3OCCC23)cc1 (stereo partly drawn) [Compound 1036]	5.10	–
COc1ccc(S(=O)(=O)N(CC(C)C)CC(O)CNc2ccccc2C(=O)NC(C)(C)C)cc1 (stereo not drawn) [Compound 1002]	4.80	–
COc1ccc(S(=O)(=O)N(CC[C@H](O)CN2CCCC[C@H]2C(=O)NC(C)(C)C)CC(C)C)cc1 [XLVIII]	5.48	–
CCCN(CC(=O)c1ccccc1)C[C@H](O)CN(CC1CCCC1)S(=O)(=O)c1ccc(OC)cc1 [Compound 1029]	5.46	–
CC(C)CN(C[C@@H](O)CN(CCc1ccccc1)C(=O)O[C@H]1CCOC1)S(=O)(=O)c1cccc(N)c1 [Compound 1012]	6.70	–
COc1ccc(S(=O)(=O)N(CC2CCCC2)C[C@@H](O)CN(CC(C)C)C(=O)O[C@H]2CCOC2)cc1 [Compound 1004]	5.89	–
COc1ccc(S(=O)(=O)N(CC(C)C)C[C@H](O)CCN(CC2CCCC2)C(=O)O[C@H]2CCOC2)cc1 [Compound 1040]	< 5.00	–
COc1ccc(S(=O)(=O)N(CC(O)CN(CCc2ccccc2)C(=O)[C@H](NC(=O)OCc2ccccc2)C(C)C)CC2CCCC2)cc1 (stereo partly drawn) [Compound 1027]	8.15	–
COc1ccc(S(=O)(=O)N(CC2CCCC2)C[C@@H](O)CN(CCc2ccccc2)C(=O)Cc2ccccc2)cc1 [Compound 1020]	6.77	–
Nc1ccc(S(=O)(=O)N(CC2CCCC2)C[C@@H](O)CN(CCc2ccccc2)C(=O)O[C@H]2CCOC2)cc1 [Compound 1008]	6.59	–
COc1ccc(S(=O)(=O)N(CC2CCCC2)C[C@@H](O)CN(CCc2ccccc2)C(C)=O)cc1 [Compound 1047]	5.80	–

SMILES	pKi [1]	further results
COc1ccc(S(=O)(=O)N(CC(C)C)C[C@@H](O)CC(Cc2ccccc2)C(=O)N[C@H]2c3ccccc3C[C@H]2O)cc1 (stereo partly drawn) [LII]	7.96	–
COc1ccc(S(=O)(=O)N(CC2CCCC2)C[C@@H](O)CN(CCc2cccnc2)C(=O)OCc2cccnc2)cc1 [Compound 1025]	6.57	–
O=C(O[C@H]1CCOC1)N(CCc1ccccc1)C[C@H](O)CN(CC1CCCC1)S(=O)(=O)c1ccc(O)cc1 [Compound 1007]	7.46	–
COc1ccc(S(=O)(=O)N(CC(C)C)C[C@@H](O)CCN2CCCC[C@H]2C(=O)NC(C)(C)C)cc1 [Compound 1033]	5.80	–
COc1ccc(S(=O)(=O)N(CC(O)CN2C(=O)OC[C@@H]2Cc2ccccc2)CC2CCCC2)cc1 (stereo partly drawn) [Compound 1046]	5.92	–
COc1ccc(S(=O)(=O)N(CC2CCCC2)C[C@@H](O)CN(CCc2ccc(O)cc2)C(=O)O[C@H]2CCOC2)cc1 [Compound 1016]	7.12	–
COc1ccc(S(=O)(=O)N(CC2CCCC2)C[C@H](O)CN(CCc2ccccc2)C(=O)O[C@H]2CCOC2)cc1 [Compound 1000]	7.00	–
COc1ccc(S(=O)(=O)N(CC2CCCC2)C[C@@H](O)CN(CCC(C)C)C(=O)O[C@H]2CCOC2)cc1 [Compound 1003]	5.92	–
COc1ccc(S(=O)(=O)N(CC[C@H](O)CN2CCN(C(=O)OCc3ccccc3)C[C@H]2C(=O)NC(C)(C)C)CC(C)C)cc1 [LXXVI]	5.57	–
O=C(OCc1cccnc1)N(CCc1ccccc1)C[C@H](O)CN(CC1CCCC1)S(=O)(=O)c1ccccc1 [Compound 1023]	7.28	–
CC(C)CN(C[C@@H](O)CCN(CC1CCCC1)S(=O)(=O)c1ccc(O)cc1)S(=O)(=O)c1ccc(O)cc1 [XLV]	6.80	–
COc1ccc(S(=O)(=O)N(CC2CCCC2)C[C@@H](O)CN(CCC2CCCCC2)C(=O)O[C@H]2CCOC2)cc1 [Compound 1011]	6.96	–
COc1ccc(S(=O)(=O)N(CC2CCCC2)C[C@@H](O)CN(CCCc2ccccc2)C(=O)O[C@H]2CCOC2)cc1 [Compound 1006]	6.33	–
COc1ccc(S(=O)(=O)N(CC(C)C)C[C@@H](O)CCN(CC2CCCC2)S(=O)(=O)c2cccc(N)c2)cc1 [Compound 1041]	6.57	–
COc1ccc(S(=O)(=O)N(CC2CCCC2)C[C@@H](O)CN(CCc2ccc(O)c(O)c2)C(=O)O[C@H]2CCOC2)cc1 [Compound 1017]	6.96	–
COc1ccc(S(=O)(=O)N(CC2CCCC2)C[C@@H](O)CN(CCc2ccccc2)C(=O)c2cccc(O)c2C)cc1 [Compound 1024]	7.18	–
Nc1cccc(S(=O)(=O)N(CC2CCCC2)C[C@@H](O)CN(CCc2ccccc2)C(=O)O[C@H]2CCOC2)c1 [Compound 1009]	6.92	–
COc1ccc(S(=O)(=O)N(CC(C)C)C[C@@H](O)CC(Cc2ccccc2)C(=O)NCC(C)C)cc1 (stereo partly drawn) [LI]	5.30	–
Nc1cccc(S(=O)(=O)N(CC2CCCC2)C[C@@H](O)CN(CCc2ccccc2)C(=O)O[C@@H]2COC3OCCC32)c1 (stereo partly drawn) [Compound 1013]	7.30	–
COc1ccc(S(=O)(=O)N(CC(C)C)C[C@@H](O)CC(=O)N2CCN(C(=O)OCc3ccccc3)C[C@H]2C(=O)NC(C)(C)C)cc1 [Compound 1031]	5.85	–
C=CCOC(=O)N(CCc1ccccc1)C[C@H](O)CN(CC1CCCC1)S(=O)(=O)c1ccc(OC)cc1 [Compound 1021]	7.15	–
Nc1cccc(S(=O)(=O)N(CC2CCCC2)C[C@@H](O)CN(CCc2ccccc2)C(=O)OC2COCOC2)c1 [Compound 1014]	6.89	–
COc1ccc(S(=O)(=O)N(CC(C)C)C[C@@H](O)CCN(CC(C)C)S(=O)(=O)N(C)C)cc1 [Compound 1034]	5.96	–
COc1ccc(S(=O)(=O)N(CC2CCCC2)C[C@@H](O)CN(CCc2ccccc2)C(=O)OCc2ccccc2)cc1 [Compound 1019]	7.70	–
